From US6455526B1, “Biodegradable polymer encapsulated pharmaceutical compositions and method for preparing the same” (Aventis Pharmaceuticals, Inc., priority 1998, dated 2002)

Legend:
Male Wistar rats = test: Chronic Mild Stress Model of Depression (CMS), sucrose intake; type: in vivo, rat; conditions: for Sucrose intake in control animals / Sucrose intake in stressed animals: five weeks; for Sucrose intake in stressed animals: treatment effect
From the text: CMS uses mild stressors, such as food and water deprivation, cage tilts, changes of cage mates, etc. Over a period of weeks of exposure to the mild stressors, the animals gradually reduce their consumption of a highly preferred sucrose solution which persists (in untreated animals) for several weeks following the cessation of stress. This decreased sensitivity to reward (the sucrose solution) reflects anhedonia, a symptom of a Major Depressive Episode (see for example, Behavioral Pharmacol. 5: Suppl.1, p. 86 (1994) where lithium, carbamazepine and ketoconazole were evaluated in CMS; Psychopharmacology 93:358-364 (1987) where a tricyclic antidepressant was evaluated in CMS; Behavioral Pharmacology: 5:344-350 (1994) where a catechol-O-methyl transferase inhibitor was evaluated in CMS).
Male Wistar rats were brought into the laboratory two months before the start of the experiment at which time they weighed approximately 300 grams. Except as described below, the animals were singly housed, with food and water freely available, and maintained on a 12 hour light/dark cycle (lights on at 8AM) at a temperature of about 22° C.
The animals were first trained to consume a 1% sucrose solution; training consisted of eight 1 hour baseline tests in which sucrose was presented, in the home cage, following 14 hours food and water deprivation; intake was measured by weighing pre-weighed bottles containing the sucrose solution at the end of the test. Subsequently, sucrose consumption was monitored, under similar conditions, at weekly intervals throughout the whole experiment.
On the basis of their sucrose intakes in the final baseline test, the animals were divided into two matched groups. One group of animals was subjected to a chronic mild stress procedure for a period of 9 consecutive weeks. Each week of stress regime consisted of: two periods of food or water deprivation (12 and 14 hour), two periods of 45 degree cage tilt (12 and 14 hour+), two periods of intermittent overnight illumination (lights on and off every 2 hours), two 14 hour periods of soiled cage (200 ml water in sawdust bedding), two 14 hour periods of paired housing, two 14 hour periods of low intensity stroboscopic illumination (150 flashes/min). Stressors were applied continuously throughout the day and night, and scheduled randomly. Control animals were housed in a separate room and had no contract with the stressed animals. They were deprived of food and water for the 14 hours preceding each sucrose test, but otherwise food and water were freely available in the home cage. On the basis of their sucrose intake scores following 3 weeks of stress, both stressed and control animals were each divided further into matched subgroups (n=8), and for subsequent five weeks they received daily administrations of vehicle (1 ml/kg, intraperitoneally (ip)) imipramine (10 mg/kg, ip) or MDL 100,907 (0.002, 0.02 and 0.2 mg/kg orally). All drug injections were in a volume of 1 ml/kg body weight. Drugs were administered at 10AM and sucrose tests were carried out 24 hours following the last drug treatment. After five weeks, the treatments were terminated and after one week of withdrawal a final sucrose test was carried out. Stress was continued throughout the period of treatment and withdrawal.
Results were analyzed by multiple analysis of variance, followed by Fisher's LSD test for post hoc comparisons of means.

[1] = system: A10 vs. A9 neuronal activity; conditions: after chronic administration; cited from earlier work
[2] = system: amphetamine-stimulated locomotion; conditions: in vivo; cited from earlier work
prepulse inhibition = conditions: cited from earlier work
myocardial tissue = conditions: cited from earlier work
[3] = 0.002, 0.02 and 0.2 mg/kg orally daily

## CN(C)CCCN1c2ccccc2CCc2ccccc21 [Imipramine, reference compound]
Male Wistar rats; 10 mg/kg, ip daily
  Sucrose intake in control animals: no significant effect
  Sucrose intake in stressed animals: gradual increase of sucrose intake
Male Wistar rats; 10 mg/kg, ip, after five weeks of treatment
  Sucrose intake of drug-treated stressed animals vs drug- and saline-treated controls: no significant differences
Male Wistar rats; 10 mg/kg, ip, after four weeks of treatment
  Sucrose intake in stressed animals vs Week 0 scores: significantly increased
Male Wistar rats; 10 mg/kg, ip, one week after withdrawal
  Increase of sucrose intake in stressed animals after withdrawal: maintained at similar level

## COc1cccc(C(O)C2CCN(CCc3ccc(F)cc3)CC2)c1OC (stereo not drawn) [MDL 100,907, (+)-α-(2,3-dimethoxyphenyl)-1-[2-(4-fluorophenyl)ethyl]-4-piperidinemethanol]
Male Wistar rats; 0.002 mg/kg orally
  Sucrose intake in stressed animals throughout the whole treatment period: no significant effect
Male Wistar rats; 0.02 mg/kg orally
  Sucrose solution drunk by stressed animals at end of treatment (Week 5): comparable to that of vehicle-treated controls
Male Wistar rats; 0.02 mg/kg orally, after two weeks of treatment
  Sucrose intake in stressed animals vs initial scores (Week 0): significantly increased
Male Wistar rats; 0.2 mg/kg orally
  Sucrose solution drunk by stressed animals at end of treatment (Week 5): comparable to that of vehicle-treated controls
Male Wistar rats; 0.2 mg/kg orally, after three weeks of treatment
  Sucrose intake in stressed animals vs initial scores (Week 0): significantly increased
Male Wistar rats; 0.002, 0.02, 0.2 mg/kg orally
  Sucrose intake in control animals one week after withdrawal: not significantly changed
  Sucrose intake in stressed animals one week after withdrawal: not significantly changed
Male Wistar rats; [3]
  Sucrose intake in control animals: no significant effect
  Sucrose intake in stressed animals: gradually reversed the CMS-induced deficit in sucrose intake
[1]
  Effects on A10 vs. A9 neuronal activity: selective effects
[2]
  Amphetamine-stimulated locomotion: blockade
Prepulse inhibition; disruption produced by 5HT agonists in Wistar rats
  Disrupted PPI (prepulse inhibition): restore disrupted PPI
Prepulse inhibition; rat, in vivo
  5-HT2 agonist-induced deficits in prepulse inhibition and latent inhibition: reversal
Myocardial tissue
  Duration of the action potential of myocardial tissue: increases
